# Assay results: PMC8776894 (Communications Biology, 2022)
# Where “and” joins values, the source holds several entries; their conditions need not be identical. Equal entries are not always repeated.
# Assays:
# MCAO/R mice [1] = test: Longa test; assay type: in vivo, mouse
# Description: Mice were graded on a 5-point scale, which was modified from the Longa score.
# [2] = VK stability in PBS (HPLC); assay type: physicochemical; conditions: pH 7.4, 37 °C, 750 rpm, 120 min, VK 0.735 mM (Fig. 1 legend 73.5 nM), HPLC-UV 215 nm, peak area relative to 0 min, at least triplicate
# Protocol: Proteolytic degradation of peptide-based drugs is generally considered as the main defect to limit systemic therapeutic applications. Therefore, high-performance liquid chromatography (HPLC) was used to assess the stability of VK in PBS or plasma at physiological pH (7.4) and temperature (37 °C). […] For neuropharmacology, crossing the BBB is a remarkable challenge, and VK was labeled with FITC in the N-terminus. FITC-labeled VK was then administered to stroke mice. After 30 min, these mice were imaged by an in vivo imaging system. […] Brains were collected at 0, 30, 60, 90, and 120 min and the distribution of VK was observed. […] To further evaluate whether VK was a cell-penetrating peptide, the oxygen-glucose deprivation/reoxygenation (OGD/R) model simulated I/R […] was established in HT22 hippocampal neuron cells and FITC-labeled VK was incubated for 120 min.
# VK in PBS or plasma was detected by quantifying the peak areas relative to the initial peak areas (0 min). All stability tests were performed at least in triplicate.
# mice = test: Acute toxicity test (single i.p. dose); assay type: in vivo, mouse
# Protocol: To ensure that the safety of VK in vivo, acute toxicity test was performed. […] Clinical symptoms (temperature, change in skin, eye color change, general physique, body weight, diarrhea, sedation, and organ index) were recorded (Supplementary Table 3). […] Karyopyknosisa and the cellular swelling of the hepatocyte were moderate in the liver of mice treated with VK (96 and 384 mg/kg). […]
# Acute toxicity test. Systemic acute toxicity test by peritoneal injection was performed according to the guideline provided by Center for Drug Evaluation and Research. In addition to the normal group, male mice were randomly divided into the treated groups received a single dose of 1.5 mg/kg, 6 mg/kg, 24 mg/kg, 96 mg/kg and 384 body weight of VK. Clinical signs of toxicity such as mortality, skin, eyes, fur, respiratory pattern , changes in general behavior and activity were individually observed. […]
# day, the mice were anesthetized with 1.5% isoflurane in a mixture of 30% O2 and 69% N2O. Blood was collected from muse eyeballs and mixed with 3.2% sodium citrate at a v/v ratio of 1:9. Then, the blood was centrifuged at 3,000 rpm for 10 min.
# The obtained plasma was analyzed using an automatic coagulation apparatus (CA1500).
# [3] = tested on: HT22 hippocampal neuron cells (OGD/R); test: HT22 cell viability after OGD/R (CCK8)
# [4] = tested on: HT22 hippocampal neuron cells; test: CCK-8 cytotoxicity in HT22 cells; conditions: CCK8 assay
# [5] = tested on: neurons in brain of MCAO/R mice; test: NeuN immunohistochemistry; assay type: in vivo, mouse
# MCAO/R mice [6] = test: Grip test; assay type: in vivo, mouse; parameters: grip test (Fig.2g): unit not given here; conditions: for grip test (Fig.2g): individual animals
# Protocol: The grip strength (The Chatillon® DFE Digital Force Gauge DFX-050) was used to evaluate the effects of VK on muscular incoordination of mice. The forelimbs of the mice were placed on the test grid and the mice were gently pulled after the animals were grasped and the force value when the claws of the animals were recorded was the grip value. The test was performed at 24 and 48 h after MCAO/R.
# [7] = tested on: microglia in brain of MCAO/R mice; test: IBA1 staining of microglia (IHC, immunofluorescence); assay type: in vivo, mouse
# [8] = VK 1.5 mg/kg single i.p., n=5, 14 d observation
# [9] = VK 6 mg/kg single i.p., n=6, 14 d observation
# [10] = VK 24 mg/kg single i.p., n=6, 14 d observation
# [11] = VK 96 mg/kg single i.p., n=6, 14 d observation
# [12] = VK 384 mg/kg single i.p., n=6, 14 d observation
substance,measurement,setting,value
"Gly-Arg-Pro-Hyp-Gly-Phe-Ser-Pro-Phe-Arg-Ile-Asp [VK, Vespakinin-M]",Longa test score (Fig.2e),"MCAO/R mice [1]; 0.5d, VK 150 µg/kg i.p., individual animals",4 and 3 (2×) and 2 (3×)
same,Longa test score (Fig.2e),"MCAO/R mice [1]; 0.5d, VK 300 µg/kg i.p., individual animals",2 (3×) and 3 (2×) and 4
same,Longa test score (Fig.2e),"MCAO/R mice [1]; 1d, VK 150 µg/kg i.p., individual animals",3 and 2 (3×) and 1 (2×)
same,Longa test score (Fig.2e),"MCAO/R mice [1]; 1d, VK 300 µg/kg i.p., individual animals",2 (3×) and 3 (2×) and 1
same,Longa test score (Fig.2e),"MCAO/R mice [1]; 3d, VK 150 µg/kg i.p., individual animals",2 (2×) and 1 (4×)
same,Longa test score (Fig.2e),"MCAO/R mice [1]; 3d, VK 300 µg/kg i.p., individual animals",1 (2×) and 2 (4×)
same,Longa test score (Fig.2e),"MCAO/R mice [1]; 7d, VK 150 µg/kg i.p., individual animals",2 and 1 (5×)
same,Longa test score (Fig.2e),"MCAO/R mice [1]; 7d, VK 300 µg/kg i.p., individual animals",1 (3×) and 2 (3×)
same,"neurological deficits, Longa test, vs vehicle","MCAO/R mice [1]; MCAO/R mice, VK 150 and 300 µg/kg i.p.",improved neurological deficits
same,Fig8g neurological score,"MCAO/R mice [1]; VK alone or with B1R / B2R blockade, individual animals, n = 5, score and time not given",1 and 2 and 0
same,Fig8f neurological score,"MCAO/R mice [1]; VK alone or with B1R / B2R blockade, individual animals, n = 6, score and time not given",1 and 2
same,degradation rate of VK in PBS,[2],62.4%
same,Body weight,mice; [8],Normal
same,Breathing difficulty,mice; [8],Normal
same,Change In skin,mice; [8],No effect
same,Coma,mice; [8],Normal
same,Death,mice; [8],Alive
same,Diarrhea,mice; [8],Normal
same,Drowsiness,mice; [8],Normal
same,Eye color change,mice; [8],No effect
same,Organ index,mice; [8],Normal
same,Sedation,mice; [8],Normal
same,Temperature,mice; [8],Normal
same,Tremor,mice; [8],Normal
same,Body weight,mice; [9],Normal
same,Breathing difficulty,mice; [9],Normal
same,Change In skin,mice; [9],No effect
same,Coma,mice; [9],Normal
same,Death,mice; [9],Alive
same,Diarrhea,mice; [9],Normal
same,Drowsiness,mice; [9],Normal
same,Eye color change,mice; [9],No effect
same,Organ index,mice; [9],Normal
same,Sedation,mice; [9],Normal
same,Temperature,mice; [9],Normal
same,Tremor,mice; [9],Normal
same,Body weight,mice; [10],Decline
same,Breathing difficulty,mice; [10],Normal
same,Change In skin,mice; [10],No effect
same,Coma,mice; [10],Normal
same,Death,mice; [10],Alive
same,Diarrhea,mice; [10],Normal
same,Drowsiness,mice; [10],Normal
same,Eye color change,mice; [10],No effect
same,Organ index,mice; [10],Normal
same,Sedation,mice; [10],Normal
same,Temperature,mice; [10],Normal
same,Tremor,mice; [10],Normal
same,Body weight,mice; [11],Decline
same,Breathing difficulty,mice; [11],Normal
same,Change In skin,mice; [11],No effect
same,Coma,mice; [11],Normal
same,Death,mice; [11],Alive
same,Diarrhea,mice; [11],Normal
same,Drowsiness,mice; [11],Normal
same,Eye color change,mice; [11],No effect
same,Organ index,mice; [11],Normal
same,Sedation,mice; [11],Normal
same,Temperature,mice; [11],Normal
same,Tremor,mice; [11],Normal
same,liver index,mice; VK 384 mg/kg single i.p.,increased liver index
same,Body weight,mice; [12],Decline
same,Breathing difficulty,mice; [12],Normal
same,Change In skin,mice; [12],No effect
same,Coma,mice; [12],Normal
same,Death,mice; [12],Alive
same,Diarrhea,mice; [12],Normal
same,Drowsiness,mice; [12],Normal
same,Eye color change,mice; [12],No effect
same,Organ index,mice; [12],Increased
same,Sedation,mice; [12],Normal
same,Temperature,mice; [12],Normal
same,Tremor,mice; [12],Normal
same,Body weight,"mice; VK 24, 96 and 384 mg/kg single i.p.",continued to lose weight until day 5
same,"index of brain, myocardium and kidney",mice; all treatment dose groups (1.5-384 mg/kg single i.p.),no difference
same,safe multiple of the effective dose (150 μg/kg),mice; mice,640 times
same,safe doses of VK in acute toxicity tests,"mice; mice, single i.p. dose",< 96 mg/kg
same,mortality,"mice; single i.p. dose 1.5, 6, 24, 96 and 384 mg/kg, observed for 24 h",no mortality was observed
same,cell activity of HT22 cells after OGD/R,[3],enhanced cell activity
same,concentrations at which VK inhibited growth of HT22 cells,[4],73.5 to 735 µM
same,number of NeuN-positive cells,[5],greater than that in the vehicle-treated group
same,grip test (Fig.2g),MCAO/R mice [6]; VK 150 µg/kg i.p.,103 and 99.5 and 136 and 78 and 61.1 and 99 and 115.7
same,grip test (Fig.2g),MCAO/R mice [6]; VK 300 µg/kg i.p.,116.6 and 26 and 19.5 and 56.2 and 63.2 and 77 and 80.9
same,"sensorimotor function, grip test",MCAO/R mice [6]; VK 150 and 300 µg/kg i.p.,improved functional performance and ameliorated the sensorimotor asymmetry
same,I/R-induced elevation of IBA1 expression in cerebral cortex,[7],greatly blunted
